4 compounds from patent publication US20090246519A1 (priority 2008, published 2009) can be followed below.

One assay relates to Strains in all clusters. The class given is cell-based.
In assay [1] the test system is Cluster 2 strains 28A, 6A. The class given is cell-based, Bacillus sp. Particulars: highest level of tellurite tolerated by strains when grown on LB-Marine plates.
Another assay relates to Cluster 3 strain 14B. The class given is cell-based, Virgibacillus halodenitrificans.
Assay [2] deals with Cluster 1 strains 1A, 13B, 30B. The class given is cell-based, Rhodotorula mucilaginosa. Particulars: highest level of tellurite tolerated by strains when grown on LB-Marine plates.

On to `O=[Te](=O)(O)O` [tellurate], for which, in the assay with Strains in all clusters, the “Resistance of strains to oxyanion” value is reported as “resistant”. The same measure, in the same setting: the value for arsenate was “resistant”. Take sodium tellurite [TeO3^2−]: the “Maximum [TeO3^2−]” value was 300 µg/mL in assay [1]; 75 to 150 µg/mL with Cluster 3 strain 14B (highest level of tellurite tolerated by strains when grown on LB-Marine plates, cluster 3); 600 µg/mL in assay [2]. Further, the “Growth of strain 14B in the presence of tellurite” value with Cluster 3 strain 14B (150 μg Na2TeO3 ml^−1, on plates and in liquid cultures) is given as “grows poorly”.

As to `O=[Se](=O)(O)O` [selenate], the “Resistance of strains to oxyanion” value with Strains in all clusters is “resistant”.
